Laboratory results as given in ChEMBL document CHEMBL5154835, “Design, synthesis and biological evaluation of sulfonamides inhibitors of XPO1 displaying activity against multiple myeloma cells” (Eur J Med Chem, 2022).
pIC50: −log10 of the molar value. Calls of active or inactive are those of the source. The rule behind the calls is not given here.

Experiments:
[1] = test system: MM1.S; assay: Antiproliferative activity against human MM1.S cells assessed as inhibition of cell growth incubated for 4 hrs by CCK-8 assay; format: functional, cell-based
[2] = test system: MM1.S; assay: Induction of cell cycle arrest in human MM1.S cells assessed as accumulation at G1 phase at 5000 nM incubated for 48 hrs by propidium iodide staining based flow cytometric analysis (reference value: 59.8%); format: functional
[3] = test system: MM1.S; assay: Induction of apoptosis in human MM1.S cells assessed as assessed as early apoptotic cells at 100 nM measured after 48 hrs by annexin V-FITC/PI staining based flow cytometry analysis (Rvb=4.60%); format: functional
[4] = test system: MM1.S; assay: Induction of apoptosis in human MM1.S cells assessed as assessed as viable cells at 100 nM measured after 48 hrs by annexin V-FITC/PI staining based flow cytometry analysis (Rvb=85.74%); format: functional; settings: read-out: Activity
[5] = Tmax in Sprague-Dawley rat at 10 mg/kg, IG measured upto 8 hrs by LC-MS/MS analysis; format: ADME, organism-based; settings: in vivo, po
[6] = Antiproliferative activity against human Rael cells assessed as inhibition of cell growth incubated for 4 hrs by CCK-8 assay; format: functional, cell-based
[7] = test system: MM1.S; assay: Induction of cell cycle arrest in human MM1.S cells assessed as p53-dependent accumulation of cells in G2 phase at 1000 nM incubated for 48 hrs by propidium iodide staining based flow cytometric analysis (reference value: 18.4%); format: functional
[8] = test system: YT; assay: Antiproliferative activity against human YT cells assessed as inhibition of cell growth incubated for 4 hrs by CCK-8 assay; format: functional, cell-based
[9] = test system: MM1.S; assay: Induction of apoptosis in human MM1.S cells assessed as assessed as necrotic cells at 1000 nM measured after 48 hrs by annexin V-FITC/PI staining based flow cytometry analysis (Rvb=7.60%); format: functional
[10] = Metabolic stability in rat plasma assessed as compound remaining measured upto 120 mins by LC/MS analysis; format: ADME, cell-free; settings: read-out: Stability
[11] = test system: MM1.S; assay: Induction of apoptosis in human MM1.S cells assessed as assessed as necrotic cells at 100 nM measured after 48 hrs by annexin V-FITC/PI staining based flow cytometry analysis (Rvb=7.60%); format: functional
[12] = Antiproliferative activity against human Mutu-1 cells assessed as inhibition of cell growth incubated for 4 hrs by CCK-8 assay; format: functional, cell-based; settings: Mutu-1, 4 h
[13] = Clearance in Sprague-Dawley rat at 10 mg/kg, IG measured upto 8 hrs by LC-MS/MS analysis; format: ADME, organism-based; settings: in vivo, po
[14] = Tmax in Sprague-Dawley rat at 1 mg/kg, iv measured upto 8 hrs by LC-MS/MS analysis; format: ADME, organism-based; settings: in vivo
[15] = Metabolic stability in rat liver microsomes assessed as compound remaining preincubated for 5 mins measured upto 60 mins in presence of NADPH by LC/MS analysis; format: ADME, Microsome; settings: time < 65 min, read-out: Stability
[16] = test system: MM1.S; assay: Induction of cell cycle arrest in human MM1.S cells assessed as accumulation at S phase at 100 nM incubated for 48 hrs by propidium iodide staining based flow cytometric analysis (reference value: 21.8%); format: functional
[17] = test system: MM1.S; assay: Induction of cell cycle arrest in human MM1.S cells assessed as accumulation at S phase at 1000 nM incubated for 48 hrs by propidium iodide staining based flow cytometric analysis (reference value: 21.8%); format: functional
[18] = test system: MM1.S; assay: Induction of cell cycle arrest in human MM1.S cells assessed as p53-dependent accumulation of cells in G2 phase at 100 nM incubated for 48 hrs by propidium iodide staining based flow cytometric analysis (reference value: 18.4%); format: functional
[19] = test system: MM1.S; assay: Induction of apoptosis in human MM1.S cells assessed as assessed as late apoptotic cells at 10000 nM measured after 48 hrs by annexin V-FITC/PI staining based flow cytometry analysis (Rvb=2.06%); format: functional
[20] = AUC (0 to infinity) in Sprague-Dawley rat at 1 mg/kg, iv measured upto 8 hrs by LC-MS/MS analysis; format: ADME, organism-based; parameters: dose 1 mg/kg, time < 8 hrs, route iv; settings: in vivo
[21] = AUC (0 to infinity) in Sprague-Dawley rat at 10 mg/kg, IG measured upto 8 hrs by LC-MS/MS analysis; format: ADME, organism-based; parameters: dose 10 mg/kg, time < 8 hrs, route ig; settings: in vivo, po
[22] = test system: MM1.S; assay: Induction of cell cycle arrest in human MM1.S cells assessed as accumulation at G1 phase at 1000 nM incubated for 48 hrs by propidium iodide staining based flow cytometric analysis (reference value: 59.8%); format: functional
[23] = Clearance in Sprague-Dawley rat at 1 mg/kg, iv measured upto 8 hrs by LC-MS/MS analysis; format: ADME, organism-based; settings: in vivo
[24] = Antiproliferative activity against human MINO cells assessed as inhibition of cell growth incubated for 4 hrs by CCK-8 assay; format: functional, cell-based
[25] = test system: MM1.S; assay: Induction of apoptosis in human MM1.S cells assessed as increase in apoptosis rate at 10 uM measured after 48 hrs by annexin V-FITC/PI staining based flow cytometry analysis (Rvb=6.7%); format: functional
[26] = Half life in Sprague-Dawley rat at 1 mg/kg, iv measured upto 8 hrs by LC-MS/MS analysis; format: ADME, organism-based; settings: in vivo
[27] = test system: MM1.S; assay: Induction of apoptosis in human MM1.S cells assessed as assessed as late apoptotic cells at 1000 nM measured after 48 hrs by annexin V-FITC/PI staining based flow cytometry analysis (Rvb=2.06%); format: functional
[28] = test system: MM1.S; assay: Induction of apoptosis in human MM1.S cells assessed as assessed as necrotic cells at 10000 nM measured after 48 hrs by annexin V-FITC/PI staining based flow cytometry analysis (Rvb=7.60%); format: functional
[29] = Cmax in Sprague-Dawley rat at 1 mg/kg, iv measured upto 8 hrs by LC-MS/MS analysis; format: ADME, organism-based; parameters: dose 1 mg/kg, time < 8 hrs, route iv; settings: in vivo
[30] = Antiproliferative activity against human VAL cells assessed as inhibition of cell growth incubated for 4 hrs by CCK-8 assay; format: functional, cell-based
[31] = test system: MM1.S; assay: Induction of apoptosis in human MM1.S cells assessed as assessed as late apoptotic cells at 100 nM measured after 48 hrs by annexin V-FITC/PI staining based flow cytometry analysis (Rvb=2.06%); format: functional
[32] = test system: MM1.S; assay: Induction of cell cycle arrest in human MM1.S cells assessed as p53-dependent accumulation of cells in G2 phaseat 10000 nM incubated for 48 hrs by propidium iodide staining based flow cytometric analysis (reference value: 18.4%); format: functional
[33] = Half life in Sprague-Dawley rat at 10 mg/kg, IG measured upto 8 hrs by LC-MS/MS analysis; format: ADME, organism-based; settings: in vivo, po
[34] = test system: MM1.S; assay: Induction of cell cycle arrest in human MM1.S cells assessed as accumulation at S phase at 5000 nM incubated for 48 hrs by propidium iodide staining based flow cytometric analysis (reference value: 21.8%); format: functional
[35] = Bioavailability in Sprague-Dawley rat at 10 mg/kg, IG measured upto 8 hrs by LC-MS/MS analysis; format: ADME, organism-based; settings: in vivo, po
[36] = Cmax in Sprague-Dawley rat at 10 mg/kg, IG measured upto 8 hrs by LC-MS/MS analysis; format: ADME, organism-based; parameters: dose 10 mg/kg, time < 8 hrs, route ig; settings: in vivo, po
[37] = test system: MM1.S; assay: Induction of cell cycle arrest in human MM1.S cells assessed as accumulation at G1 phase at 100 nM incubated for 48 hrs by propidium iodide staining based flow cytometric analysis (reference value: 59.8%); format: functional
[38] = test system: MM1.S; assay: Induction of cell cycle arrest in human MM1.S cells assessed as p53-dependent accumulation of cells in G2 phase at 5000 nM incubated for 48 hrs by propidium iodide staining based flow cytometric analysis (reference value: 18.4%); format: functional
[39] = test system: MM1.S; assay: Induction of apoptosis in human MM1.S cells assessed as assessed as viable cells at 10000 nM measured after 48 hrs by annexin V-FITC/PI staining based flow cytometry analysis (Rvb=85.74%); format: functional; settings: read-out: Activity
[40] = AUC (0 to t) in Sprague-Dawley rat at 10 mg/kg, IG measured upto 8 hrs by LC-MS/MS analysis; format: ADME, organism-based; parameters: time < 8 hrs, dose 10 mg/kg, route ig; settings: in vivo, po
[41] = Antiproliferative activity against human JB-6 cells assessed as inhibition of cell growth incubated for 4 hrs by CCK-8 assay; format: functional, cell-based; settings: JB6, 4 h
[42] = test system: MM1.S; assay: Induction of apoptosis in human MM1.S cells assessed as assessed as viable cells at 1000 nM measured after 48 hrs by annexin V-FITC/PI staining based flow cytometry analysis (Rvb=85.74%); format: functional; settings: read-out: Activity
[43] = test system: MM1.S; assay: Induction of cell cycle arrest in human MM1.S cells assessed as accumulation at G1 phase at 10000 nM incubated for 48 hrs by propidium iodide staining based flow cytometric analysis (reference value: 59.8%); format: functional
[44] = test system: MM1.S; assay: Induction of apoptosis in human MM1.S cells assessed as assessed as early apoptotic cells at 10000 nM measured after 48 hrs by annexin V-FITC/PI staining based flow cytometry analysis (Rvb=4.60%); format: functional
[45] = test system: MM1.S; assay: Induction of cell cycle arrest in human MM1.S cells assessed as accumulation at S phase at 10000 nM incubated for 48 hrs by propidium iodide staining based flow cytometric analysis (reference value: 21.8%); format: functional
[46] = AUC (0 to t) in Sprague-Dawley rat at 1 mg/kg, iv measured upto 8 hrs by LC-MS/MS analysis; format: ADME, organism-based; parameters: time < 8 hrs, dose 1 mg/kg, route iv; settings: in vivo
[47] = test system: MM1.S; assay: Induction of apoptosis in human MM1.S cells assessed as assessed as early apoptotic cells at 1000 nM measured after 48 hrs by annexin V-FITC/PI staining based flow cytometry analysis (Rvb=4.60%); format: functional
[48] = test system: NAMALVA; assay: Antiproliferative activity against human NAMALVA cells assessed as inhibition of cell growth incubated for 4 hrs by CCK-8 assay; format: functional, cell-based
[49] = biological target: Exportin-1 (Homo sapiens) (UniProt O14980); assay: Inhibition of XPO1 in human MM1.S cells at 0.1 to 10 uM incubated for 2 hrs by confocal microscopic analysis; format: cell-based; settings: dose 0.1-10 µM
Chain of Exportin-1 (Homo sapiens) (O14980 whole entry): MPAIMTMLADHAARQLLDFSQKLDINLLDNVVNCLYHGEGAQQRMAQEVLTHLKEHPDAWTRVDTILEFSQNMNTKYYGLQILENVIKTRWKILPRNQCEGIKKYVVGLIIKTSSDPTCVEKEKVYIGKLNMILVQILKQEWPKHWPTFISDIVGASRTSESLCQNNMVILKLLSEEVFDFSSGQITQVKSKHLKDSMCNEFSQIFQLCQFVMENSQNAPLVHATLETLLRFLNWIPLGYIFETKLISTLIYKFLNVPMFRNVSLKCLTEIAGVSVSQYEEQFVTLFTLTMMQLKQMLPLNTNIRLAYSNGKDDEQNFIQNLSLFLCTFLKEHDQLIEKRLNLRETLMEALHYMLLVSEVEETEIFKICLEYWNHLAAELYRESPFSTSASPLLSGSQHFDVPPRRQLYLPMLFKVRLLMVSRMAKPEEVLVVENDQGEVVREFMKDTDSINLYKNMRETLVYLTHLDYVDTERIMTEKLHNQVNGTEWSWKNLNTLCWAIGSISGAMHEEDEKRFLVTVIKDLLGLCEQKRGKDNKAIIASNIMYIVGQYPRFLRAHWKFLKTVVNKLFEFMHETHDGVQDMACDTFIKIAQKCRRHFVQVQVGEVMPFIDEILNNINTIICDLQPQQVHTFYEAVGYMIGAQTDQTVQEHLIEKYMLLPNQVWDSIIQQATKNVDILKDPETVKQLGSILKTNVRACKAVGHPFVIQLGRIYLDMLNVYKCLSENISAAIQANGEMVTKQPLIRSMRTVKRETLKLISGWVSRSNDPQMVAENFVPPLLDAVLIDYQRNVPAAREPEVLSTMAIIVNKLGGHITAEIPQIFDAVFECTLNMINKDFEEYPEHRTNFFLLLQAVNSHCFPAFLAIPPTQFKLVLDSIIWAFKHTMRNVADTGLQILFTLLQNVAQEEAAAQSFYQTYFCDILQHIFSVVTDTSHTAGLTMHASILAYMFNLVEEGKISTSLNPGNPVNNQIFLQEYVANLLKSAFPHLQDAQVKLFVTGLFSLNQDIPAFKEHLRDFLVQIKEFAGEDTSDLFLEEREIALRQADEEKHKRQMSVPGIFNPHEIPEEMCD

[50] = test system: H9; assay: Antiproliferative activity against human H9 cells assessed as inhibition of cell growth incubated for 4 hrs by CCK-8 assay; format: functional, cell-based; settings: H9, 4 h

`NC(=O)/C(=C/n1cnc(-c2cc(C(F)(F)F)cc(C(F)(F)F)c2)n1)c1cccnc1F` showed a pIC50 [1] of 6.44.
Molecule `N#Cc1cncc(/C(=C\n2cnc(-c3cc(C(F)(F)F)cc(C(F)(F)F)c3)n2)C(N)=O)c1` has a pIC50 [1] of 6.93.
For `CS(=O)(=O)Nc1ccc(/C(=C\n2cnc(-c3cc(C(F)(F)F)cc(C(F)(F)F)c3)n2)C(N)=O)cc1`, the Activity [2] was 52.6%, the Activity [3] was 11.27% and the viability at 0.1 µM [4] was 75.4%. It also gave a Tmax [5] of 2.17 h, a pIC50 [6] of 6.70 and an Activity [7] of 33.4%. For the same molecule, the pIC50 [8] was 7.12, the pIC50 [1] was 7.62 and the Activity [9] was 6.61%. For the same molecule, the remaining at 2 h [10] was 80%, the Activity [11] was 6.94% and the pIC50 [12] was 6.80. For the same molecule, the CL/F [13] was 27.3 mL/min/kg, the Tmax [14] was 4.8 min and the remaining at 1 h [15] was 85%. It also gave an Activity [16] of 15.4%, an Activity [17] of 18.3% and an Activity [18] of 21.3%. For the same molecule, the Activity [19] was 37.33%, the AUC(0-inf) [20] was 1790 ng·h/mL and the AUC(0-inf) [21] was 6390 ng·h/mL. For the same molecule, the Activity [22] was 48.3%, the clearance [23] was 9.42 mL/min/kg and the pIC50 [24] was 7.10. It also gave an Activity [25] of 64.7%, a half-life [26] of 2.32 h and an Activity [27] of 20.49%. The Activity [28] was 7.34%, the Cmax [29] was 1240 ng/mL and the pIC50 [30] was 6.72. It also gave an Activity [31] of 6.35%, an Activity [32] of 36.4% and a half-life [33] of 2.12 h. It also gave an Activity [34] of 10.2%, a bioavailability [35] of 34.6% and a Cmax [36] of 1390 ng/mL. The Activity [37] was 63.4%, the Activity [38] was 37.3% and the viability at 10 µM [39] was 28%. The AUC(0-t) at 8 h [40] was 5770 ng·h/mL, the pIC50 [41] was 6.81 and the viability at 1 µM [42] was 46.5%. It also gave an Activity [43] of 52.1%, an Activity [44] of 27.36% and an Activity [45] of 11.5%. The AUC(0-t) at 8 h [46] was 1670 ng·h/mL, the Activity [47] was 26.42% and the pIC50 [48] was 7.11. The inhibition [49] was “Active” and the pIC50 [50] was 7.00.
